Data reported in patent US12435091B2, “RNA-binding protein multimerization inhibitors and methods of use thereof” (THE UAB RESEARCH FOUNDATION, priority 2020, dated 2025).
Read-outs that look alike come from different tables or passages of the source.

Tests used:
[1] = tested on: secreted proteins of astrocytes; test: ELISA of secreted proteins in culture media of LPS-stimulated astrocytes; type: cell-based
Description: Next, the impact of SRI-42127 on induction of inflammatory cytokine mRNAs as depicted in FIG. 15, Panel B was assessed. A significant 3-4-fold suppression of mRNA for IL-1β, IL-6, CXCL1, and CCL2 was observed. […] All chemokines were likewise suppressed, including KC, CCL2, CCL3, CCL4, CXCL10, from 2.5 to 8.1-fold.

cMET = cMET (Homo sapiens, UniProt P08581); test: SelectScreen kinase profiling, ZLYTE; type: biochemical
Sequence of cMET (P08581 25-1390): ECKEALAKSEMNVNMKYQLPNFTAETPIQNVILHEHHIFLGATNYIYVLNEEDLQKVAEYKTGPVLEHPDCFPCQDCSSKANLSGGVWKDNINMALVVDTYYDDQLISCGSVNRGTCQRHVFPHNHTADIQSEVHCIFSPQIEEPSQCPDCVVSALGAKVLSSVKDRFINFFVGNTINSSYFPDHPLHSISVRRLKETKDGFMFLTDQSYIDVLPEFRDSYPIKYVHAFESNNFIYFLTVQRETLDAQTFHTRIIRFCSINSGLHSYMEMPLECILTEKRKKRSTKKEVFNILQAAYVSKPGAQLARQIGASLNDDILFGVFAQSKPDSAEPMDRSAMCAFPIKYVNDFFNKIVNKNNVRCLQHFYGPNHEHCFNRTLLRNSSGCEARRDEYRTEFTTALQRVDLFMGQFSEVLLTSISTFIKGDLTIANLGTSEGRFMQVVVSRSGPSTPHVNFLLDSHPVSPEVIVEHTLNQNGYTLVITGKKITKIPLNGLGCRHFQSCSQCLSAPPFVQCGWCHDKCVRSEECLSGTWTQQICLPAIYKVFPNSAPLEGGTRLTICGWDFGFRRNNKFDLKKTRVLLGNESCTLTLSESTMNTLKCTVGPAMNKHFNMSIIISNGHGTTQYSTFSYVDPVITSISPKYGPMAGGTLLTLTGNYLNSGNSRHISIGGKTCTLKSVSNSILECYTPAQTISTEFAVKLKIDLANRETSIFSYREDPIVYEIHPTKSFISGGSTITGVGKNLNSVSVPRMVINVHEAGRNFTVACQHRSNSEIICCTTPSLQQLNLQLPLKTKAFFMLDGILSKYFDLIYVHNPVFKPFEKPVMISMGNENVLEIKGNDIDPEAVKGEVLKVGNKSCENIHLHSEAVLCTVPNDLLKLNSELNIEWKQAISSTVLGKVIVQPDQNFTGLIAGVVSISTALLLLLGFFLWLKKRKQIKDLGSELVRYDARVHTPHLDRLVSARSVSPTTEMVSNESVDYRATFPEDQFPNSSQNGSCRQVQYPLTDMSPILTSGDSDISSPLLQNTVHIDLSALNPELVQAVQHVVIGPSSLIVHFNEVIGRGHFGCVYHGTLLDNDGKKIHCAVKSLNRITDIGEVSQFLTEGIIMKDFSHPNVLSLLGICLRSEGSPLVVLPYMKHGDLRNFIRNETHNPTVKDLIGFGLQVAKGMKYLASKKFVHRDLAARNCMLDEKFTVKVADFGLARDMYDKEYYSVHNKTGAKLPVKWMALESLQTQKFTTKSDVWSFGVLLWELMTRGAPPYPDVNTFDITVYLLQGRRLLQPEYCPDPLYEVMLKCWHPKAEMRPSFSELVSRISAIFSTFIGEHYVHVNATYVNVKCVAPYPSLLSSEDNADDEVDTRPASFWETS
Description: The kinase inhibitory potentials of compounds as described herein (e.g., SRI-42127 and SRI-41664) were evaluated by ThermoFisher Scientific's SelectScreen™ Kinase Profiling Service. The following kinase inhibitory assays were utilized: ZLYTE (Madison, WI) for NTRK1, PIM1, and cMET kinases; LanthaScreen Binding (Madison, WI) for AAK1 kinase; and Adapta (Madison, WI) for IRAK1 kinase.

[2] = tested on: inflammatory cytokines, chemokines and other mediators in primary microglial cells; test: qPCR of inflammatory mediator mRNAs in LPS-activated primary microglia; type: cell-based, mouse; settings: 24 hours
Description: Cultured primary microglial cells isolated from neonatal mouse brain were treated with LPS to achieve activation. Cells were then treated with varying doses of SRI-42127 or vehicle for 24 hours. Total RNA was harvested from the cells and various mRNAs were quantified by qPCR as depicted in FIG. 12. Consistent with microglial activation, there were large inductions of inflammatory cytokines, chemokines and other mediators including IL-1β, IL-6, TNF-α, iNOS, IL-10, CXCL1, CXCL2, CXCL10, CCL2, CCL3, and CCL4. These inductions were as high as ˜3500-fold for IL-6.
Major chemokines CXCL1, CXCL2 and CCL3 were suppressed by more than 2-fold. There was a mixed effect on markers of M2-like markers, with TGF-β1 and YM1 increasing and IL-10 decreasing. As these inflammatory factors were secreted, they were quantified by ELISA in culture medium. The greatest effect was with IL-6 which was suppressed at a lower dose of SRI-42127 (1.7-fold at 0.1 μM) and nearly 10-fold at 1.0 μM. IL-1β and TNF-α were suppressed by 5-fold at 1.0 μM.

LN229 glioma cell line = test: PrestoBlue cell viability assay; type: cell-based; settings: Homo sapiens, LN-229; LN229, 48 hours of treatment
Description: (§1) PrestoBlue cell viability reagent (ThermoFisher Scientific; Waltham, MA) was used for cell viability assays. The inhibitory dose-response data were normalized to the control (treatment with vehicle); the inhibitory dose-response curves, which were fitted by using Boltzmann equation, and the corresponding IC50s were generated by using OriginPro software (OriginLab Corporation, CA).
(§2) The glioma suppressive potentials of the new class of HuR multimerization inhibitors were evaluated by utilizing SRI-41664 and SRI-42127 compounds in several cell-based assays. First, it was confirmed that the SRI-41664 and SRI-42127 compounds are cytotoxic for established and PDGx cell lines. FIG. 5A illustrates the inhibitory dose responses of SRI-41664 and SRI-42127 compounds in the established U251, LN229, and the PDGx XD456 glioma cell lines. […] An HuR-overexpression approach was employed to confirm SRI-42127 inhibitory potency against HuR dimerization.

U251 glioma cell line = test: PrestoBlue cell viability assay; type: cell-based; settings: Homo sapiens, U-251, 48 h
Description: as §1, §2

[3] = tested on: PDGx XD456 glioma cell line; test: PrestoBlue cell viability assay; type: cell-based
Description: as §1, §2

Plasma protein binding = type: in vitro ADME
From the text: Plasma protein binding for Compound 19 was 96.44%.

[4] = tested on: LPS-induced neuroinflammatory response in the CNS; test: in vivo LPS mouse model of neuroinflammation; parameters: species or system mice
Description: Administration of LPS intraperitoneally produces an acute neuroinflammatory response in the CNS including activation of microglia with production of inflammatory cytokines and chemokines. This model was used to test the effect of SRI-42127 on attenuating the neuroinflammatory response.
Mice were injected with LPS intraperitoneally (i.p.) and then given SRI-42127 at 15 mg/kg (or vehicle) i.p. starting at 30 min post LPS injection and then three subsequent doses at 6 hours, 12 hours, and 18 hours. Brains were harvested at 24 hours for analysis. To determine the impact of SRI-42127 on HuR localization in microglia in the brain, sections from the hippocampus from 3 vehicle control and 3 SRI-42127 treated mice were examined. Tissue sections were stained with IBA1 and HuR. Quantification methods for HuR localization were similar to immunocytochemistry. Briefly, IBA1+ cells were identified and the outline of the cell was traced with Fiji software. Nuclei were localized by DAPI staining. Nuclear and cytoplasmic HuR immunofluorescence was quantitated to calculate a N/C ratio. In vehicle-treated animals, there was translocation of HuR into the cytoplasm as indicated by a merged yellow signal whereas in SRI-42127 treated mice, there was little to no merged signal. Next, 20-30 IBA1+ cells from sections in 3 control and 3 treated mice were assessed. A 2-fold increase in the N/C ratio of mice treated with SRI-42127 was observed, confirming the effect of the drug as shown in FIG. 18 (bottom).
Next, the activation state of microglia was studied by measuring IBA1 intensity. Sections from the hippocampal region were stained with IBA1 and fluorescence intensity was measured using Fiji software from 5 sections of 3 mice per group. The reviewer was blinded to the identity of the samples.
Finally, the impact of SRI-42127 on infiltration of neutrophils and monocytes into the brain after LPS administration i.p. was assessed. Microglial HuR knockout (KO) mice were also assessed. […]

HuR = HuR localization (N/C ratio) in LPS-stimulated cultured astrocytes; type: cell-based; settings: 0.5 μM for 24 hours
Description: First, the effect of SRI-42127 on HuR localization in astrocytes was studied. […] Quantification of the N/C HuR ratio using methodology described with microglia was 2.0. With LPS stimulation, there was translocation of HuR to the cytoplasm consistent with astrocyte activation and the N/C ratio decreased to 0.4 (P<0.001). When cells were treated with SRI-42127, this ratio was reversed back to pre-stimulation value (1.9). These findings indicate that SRI-42127 blocks cytoplasmic translocation of HuR in activated astrocytes.

[5] = 15 mg/kg i.p., all brain regions at 24 hours

CN(c1ccc2ncc(-c3ccc4cn[nH]c4c3)n2n1)C1CCOCC1 [Compound 19]
suppression of secreted chemokines KC, CCL2, CCL3, CCL4, CXCL10 [1]: 2.5 to 8.1 fold | suppression of secreted IL-6 ([1]; 1.0 μM): 8.8 fold | suppression of secreted TNF-α ([1]; 1.0 μM): 5.7 fold | IC50 (cMET): > 10 µM | suppression of CCL3 mRNA [2]: more than 2 fold | suppression of CXCL1 mRNA [2]: more than 2 fold | suppression of CXCL2 mRNA [2]: more than 2 fold | suppression of IL-1β mRNA [2]: 5.9 fold | suppression of IL-6 mRNA [2]: 6.8 fold | suppression of TNF-α mRNA [2]: 1.6 fold | suppression of iNOS mRNA [2]: 8 fold | IC50 (LN229 glioma cell line): 3.2 ± 0.6 µM | IC50 (U251 glioma cell line; U251, 48 hours of treatment, read-out: IC50 cell viability): 2.8 ± 0.6 µM | IC50 (U251 glioma cell line; U251 with dox-inducible HuR-dimerization reporters, after enhancement of HuR-dimer formation by two fold, 48 hours, read-out: IC50 for inhibition of cell viability): 8 ± 0.8 µM | IC50 (U251 glioma cell line; U251 with dox-inducible HuR-dimerization reporters, before enhancement of HuR-dimer formation, 48 hours, read-out: IC50 for inhibition of cell viability): 2.8 ± 0.4 µM | IC50 ([3]; Glioma cell, XD456, 48 hours of treatment): 4 ± 0.6 µM | increase of IC50 for inhibition of cell viability ([3]; XD456, enhancement of HuR-dimer formation approximately by two-fold, 48 hours): 1.9±0.2 fold | fraction unbound (Plasma protein binding): 0.0356 | increase in the HuR N/C ratio in microglia ([4]; 15 mg/kg i.p. at 30 min, 6, 12 and 18 hours post LPS, hippocampus at 24 hours): 2 fold | attenuation of infiltrating monocytes [4, 5]: 1.3- to 2 fold | attenuation of infiltrating neutrophils [4, 5]: 2 to 3 fold | N/C HuR ratio (HuR): 1.9
